Laboratory results as given in ChEMBL document CHEMBL1138244, “Three-dimensional quantitative structure-activity relationships and activity predictions of human TRPV1 channel antagonists: comparative molecular field analysis and comparative molecular similarity index analysis of cinnamides” (J Med Chem, 2007).

Assay: Inhibition of rat human chimera TRPV1 channel expressed in CHO cells
Format: cell-based

Structure (SMILES)	IC50	pIC50
CC(=O)Oc1ccc(/C=C/C(=O)Nc2ccc3c(c2)OCCO3)cc1	2330 nM	5.63
Cc1ccc(/C=C/C(=O)Nc2ccc3c(c2)OCCO3)cc1C	455 nM	6.34
CC(C)Cc1ccc(/C=C/C(=O)Nc2ccc3c(c2)OCCO3)cc1	1010 nM	5.99
O=C(/C=C/c1ccc(C2CC2)cc1)Nc1ccc2c(c1)OCCO2	419 nM	6.38
COC[C@@H]1COc2cc(NC(=O)/C=C/c3ccc(C(C)(C)C)cc3)ccc2O1	1020 nM	5.99
COc1cc(/C=C/C(=O)Nc2ccc3c(c2)OCCO3)cc(OC)c1OC	> 40000 nM	4.4
CC(C)(C)c1ccc(C(=CC(=O)Nc2ccc3c(c2)OCCO3)c2ccc(C(C)(C)C)cc2)cc1	2510 nM	5.6
COc1ccc(/C=C/C(=O)Nc2ccc3c(c2)OCCO3)cc1	1870 nM	5.73
CC(C)(C)c1ccc(/C=C/C(=O)Nc2cccc(OCCO)c2)cc1	859 nM	6.07
O=C(/C=C/c1ccc(C(F)(F)F)cc1Br)Nc1ccc2c(c1)OCCO2	453 nM	6.34
O=C(/C=C/c1ccc(F)cc1)Nc1ccc2c(c1)OCCO2	1470 nM	5.83
O=C(/C=C/c1ccc(Cl)cc1)Nc1cccc(Cl)c1	993 nM	6
CCCCc1ccc(/C=C/C(=O)Nc2ccc3c(c2)OCCO3)cc1	312 nM	6.51
CC(=O)Nc1ccc(/C=C/C(=O)Nc2ccc3c(c2)OCCO3)cc1	> 40000 nM	4.4
O=C(/C=C/c1ccc(O)cc1)Nc1ccc2c(c1)OCCO2	> 40000 nM	4.4
CN(C)c1ccc(/C=C/C(=O)Nc2ccc3c(c2)OCCO3)cc1	1320 nM	5.88
O=C(/C=C/c1ccc(F)c(F)c1)Nc1ccc2c(c1)OCCO2	1310 nM	5.88
O=C(/C=C/c1ccc(I)cc1)Nc1ccc2c(c1)OCCO2	509 nM	6.29
CC(C)(C)c1ccc(/C=C/C(=O)Nc2ccc3c(c2)OCC(=O)N3)cc1	391 nM	
CC(C)(C)c1ccc(/C=C/C(=O)Nc2ccc3c(c2)OC[C@@H](COCC2CC2)O3)cc1	329 nM	6.48
CC(C)(C)c1ccc(/C=C/C(=O)Nc2ccccc2)cc1	269 nM	6.57
CC(C)(C)c1ccc(/C=C/C(=O)Nc2ccc3c(c2)OC[C@@H](CN)O3)cc1	1270 nM	5.9
O=C(/C=C/c1cccc(C(F)(F)F)c1)Nc1ccc2c(c1)OCCO2	1210 nM	5.92
Cc1nc(C(F)(F)F)ccc1/C=C/C(=O)Nc1ccc2c(c1)OCCO2	1110 nM	5.95
O=C(/C=C/c1ccc(F)cc1F)Nc1ccc2c(c1)OCCO2	3600 nM	5.44
O=C(/C=C/c1ccc(C(F)(F)F)cc1C(F)(F)F)Nc1ccc2c(c1)OCCO2	451 nM	6.35

These reach a lower IC50. Values come first.

IC50	pIC50	Structure (SMILES)
26 nM	7.58	CCOC(=O)c1cc(C(C)(C)C)ccc1/C=C/C(=O)Nc1ccc2c(c1)OCCO2
254 nM	6.59	CC(C)(C)c1ccc(/C=C/C(=O)Nc2ccc3c(c2)O[C@@H](CO)CO3)cc1
23 nM	7.59	CC(C)(C)c1ccc(/C=C/C(=O)Nc2ccc3c(c2)OCCO3)cc1 (stereo in doubt; 1)
6 nM	8.21	CC(C)(C)c1ccc(/C=C/C(=O)Nc2ccc3c(c2)OCCO3)c(C2CCCC2)c1
102 nM		CC(C)(C)c1ccc(/C=C/C(=O)Nc2ccc3c(c2)CCCC3)cc1
4 nM		CC(C)(C)c1ccc(/C=C/C(=O)Nc2ccc3ccc(=O)[nH]c3c2)cc1
136 nM	6.87	CC(C)(C)c1ccc(/C=C/C(=O)Nc2ccc3c(c2)OCCO3)cc1 (stereo in doubt; 91)
157 nM	6.8	CC(C)(C)c1ccc(/C=C/C(=O)Nc2ccc3c(c2)OCCO3)c(Br)c1
24 nM	7.62	CC(C)(C)c1ccc(/C=C/C(=O)Nc2ccc3c(c2)OC[C@H](CO)O3)cc1
119 nM	6.92	CC(C)(C)c1ccc(/C(=C/C(=O)Nc2ccc3c(c2)OCCO3)c2ccncc2)cc1
129 nM	6.89	O=C(/C=C/c1ccc(C(F)(F)F)c(F)c1)Nc1ccc2c(c1)OCCO2
120 nM	6.92	CCC/C(=C\C(=O)Nc1ccc2c(c1)OCCO2)c1ccc(C(C)(C)C)cc1
216 nM	6.66	CC(C)(C)c1ccc(/C=C/C(=O)Nc2ccc3c(c2)O[C@H](CO)CO3)cc1
164 nM	6.78	C/C(=C\c1ccc(C(C)(C)C)cc1)C(=O)Nc1ccc2c(c1)OCCO2
226 nM	6.65	CC(C)(C)c1ccc(CCC(=O)Nc2ccc3c(c2)OCCO3)cc1
216 nM	6.67	O=C(/C=C/c1ccc(Cl)cc1)Nc1ccc2c(c1)OCCO2
39 nM	7.41	CC(C)(C)c1ccc(/C(=C\C(=O)Nc2ccc3c(c2)OCCO3)c2ccc(F)cc2)cc1
166 nM	6.78	COc1ccc(NC(=O)/C=C/c2ccc(C(C)(C)C)cc2)cc1
56 nM	7.25	CCOC(=O)CC/C(=C\C(=O)Nc1ccc2c(c1)OCCO2)c1ccc(C(C)(C)C)cc1
26 nM		CC(C)(C)c1ccc(/C=C/C(=O)Nc2ccc3c(c2)OCCN3)cc1
